In data set [1] the target is T1, Proteinase K (Parengyodontium album, UniProt P06873). The data set can be described thus: in vitro. To be noted: Proteinase K (1 μg/ml), pH 7.6.
Description: (§2) The degradation is expressed as the percentage of peptide degraded after a determined time interval calculated from the decrease in the area of the peak of the native peptide by HPLC.
(§3) The stability of the peptides of the invention to degradation by proteases is determined by a peptide digestion test by Proteinase K (Sigma-Aldrich Corporation, Madrid, Spain).
(§4) A solution of 50 μg/ml of the peptide and 1 μg/ml of Proteinase K in 100 mM TRIS buffer at pH 7.6 was used, at ambient temperature.
(§5) The progress of the peptide excision was determined chromatographically at times between 5 and 45 minutes. To do this a reverse phase C18 column was used (Kromasil, 4.6×40 mm; 3.5 μm particle size), and linear gradients from 0.98:0.02 to 0:1 during 7 min performing the detection by absorbance in ultraviolet light at 220 nm.
Data set [2] relates to erythrocytes from fresh human blood. The following applies: 5% erythrocytes, 1 h at 37° C., relative to 200 μM melittin; for % Haemolysis 50 μM: 50 μM peptide; for % Haemolysis 150 μM: 150 μM peptide; for % Haemolysis 250 μM: 250 μM peptide. As for the experimental part:
A description of the methodology used to determine the haemolytic activity is found in Oren et al, Biochemistry, 2000, 39, 6103-6114, and in Raguse et al., J. Am. Chem. Soc., 2002, 124, 12774-12785.
The haemolytic activity of the peptides of the invention was evaluated by determining the release of haemoglobin which is produced on placing in contact a solution of the peptides with a suspension of erythrocytes 5% by volume, from fresh human blood.
The blood was collected aseptically using a Vactainer® K2E system (Belliver, Great Britain) with EDTA and it was stored at 4° C. for a period lower than 2 hours.
The blood was centrifuged at 6000 g for 5 minutes to separate the erythrocytes. There were washed three times with TRIS buffer (10 mM TRIS, 150 mM NaCl, pH 7.2) and they were resuspended in TRIS buffer until obtaining a suspension which contained 10% by volume of erythrocytes.
The peptides were solubilized in TRIS buffer until a final concentration of 100, 300 and 500 μM
The replicas were used for each peptide and concentration.
65 μl of 10% erythrocyte suspension was mixed with 65 μl of the peptide solution in each well of a 96-well plate (Micro-Amp®, Applied Biosystems, USA) (5% by volume of erythrocytes) and the mixture was incubated for 1 h at 37° C. under stirring. In this way, the erythrocyte suspensions were subjected to peptide concentrations of 50, 150 and 250 μM.
Next, the plates were centrifuged at 3500 g during 10 minutes and aliquots were transferred of 80 μl of supernatant to microplates with 100 wells (Bioscreen), which were diluted with 80 μl of milli-Q water.
The degree of haemolysis was determined from the absorbance at 540 nm with a Bioscreen plate reader.
The complete positive haemolysis control was determined in a TRIS buffer solution which contained 200 μM melittin (Sigma-Aldrich, Spain)
The percentage of haemolysis (H) was determined using the following equation: H=100×[Op−Ob)/(Om−Ob)]
Where OP as the optical density measured for a determined peptide concentration, Ob was the optical density of the buffer solution, and Om was the optical density for the positive control with melittin.

For data set [3], the system named is Erwinia amylovora PMV6076. The data set can be described thus: Minimum inhibitory concentration (MIC), microbial growth by optical density. To be noted: 48 h incubation at 25° C., TSB medium. The class given is cell-based. The procedure: (§1) Each experiment was performed twice.
Data set [4] concerns Pseudomonas syringae EPS94. The description is as above. The format is cell-based. To be noted: 48 h incubation at 25° C., TSB medium. As for the experimental part: as §1
For data set [5], the system named is Xanthomonas vesicatori 2133-2. The data set is described as above. To be noted: 48 h incubation at 25° C., TSB medium.
Description: All the bacteria were stored at a temperature of −80° C. in Luria-Bertani (LB) medium supplemented with 20% glycerine in volume/volume.
In all cases they were resuspended in sterile water to obtain a suspension adjusted to an absorbance of 0.2 to 60 nm, which approximately corresponds to 10^8 colony forming units.
To determine the minimum inhibitory concentration (MIC), the peptides were solubilized in milli-Q sterile water until a final concentration of 1000 μM and they were filtered through a 0.22 μm pore size filter.
Dilutions of the peptides of the invention were made to obtained solutions at the concentrations of 750, 500, 250, 200, 150, 125, 100, 75, 50 and 25 μM.
20 μl of each dilution were mixed with 20 μl of the suspension of the corresponding bacterial indicator, and 160 μl of the TSB (Trypticase Soy Broth) liquid medium until a total volume of 200 μl in each well of a microplate.
Two replicas were carried out for each strain, concentration and peptide under study.
The positive controls contained water instead of peptide, and the negative controls contained the peptides without the bacterial suspension.
The microbial growth was determined automatically by optical density at 600 nm using the Microbiology Analyser Bioscreen C (Labsystems)
The microplates were incubated at 25° C. for 48 hours with stirring for 20 seconds before measuring the absorbance every hour. Each experiment was performed twice.
Data set [6] concerns the target T1, Proteinase K. To be noted: 45 minutes.
Description: as §2, §3, §4, §5
Where [7] appears, read: listed as peptide described by Cavallarin et al.

Residues, ends and D or L forms follow the SMILES beside them. No end group written: not given here. *: point of attachment. Tos = Cc1ccc(S(=O)(=O)*)cc1; Bz = O=C(c1ccccc1)* Bounds are passed on as bounds.

T1 sequence (P06873 106-384): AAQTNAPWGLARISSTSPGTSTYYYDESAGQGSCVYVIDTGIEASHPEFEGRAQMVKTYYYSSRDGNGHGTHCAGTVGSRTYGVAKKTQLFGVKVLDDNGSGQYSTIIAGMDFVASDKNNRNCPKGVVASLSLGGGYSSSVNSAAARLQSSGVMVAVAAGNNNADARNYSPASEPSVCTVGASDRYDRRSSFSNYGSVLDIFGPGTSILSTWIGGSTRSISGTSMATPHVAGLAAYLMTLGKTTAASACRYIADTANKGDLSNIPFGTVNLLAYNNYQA

Consider `CC[C@H](C)[C@H](NC(=O)[C@H](CCCCN)NC(=O)[C@H](CCCCN)NC(=O)[C@H](Cc1ccccc1)NC(=O)[C@H](CC(C)C)NC(=O)[C@H](CCCCN)NC(=O)[C@H](Cc1c[nH]c2ccccc12)NS(=O)(=O)c1ccc(C)cc1)C(=O)N[C@@H](CC(C)C)C(=O)N[C@@H](CCCCN)C(=O)N[C@H](C(=O)N[C@@H](CC(C)C)C(N)=O)C(C)C` [BP009] (Tos-WKLFKKILKVL-NH2), for which the metabolised at 0.75 h, 50 μg/ml in data set [1] is 100%.

As to LKLFKKILKVL-NH2 [BP033], in data set [2], the “% Haemolysis 50 μM” value is recorded as 4%, the “% Haemolysis 150 μM” value turned out to be 38% and the “% Haemolysis 250 μM” value was 68%. Moreover, in data set [1], the metabolised at 0.75 h, 50 μg/ml was found to be 100%. The “range of concentrations including the MIC, E. amylovora” value (“range … E. amylovora” below) in data set [3] was in the range of 5 to 7.5 µM. For the same molecule, the “range of concentrations including the MIC, P. syringae” value (from here on “range … P. syringae”) in data set [4] lay within 5 to 7.5 µM. Moreover, in data set [5], the “range of concentrations including the MIC, X. vesicatoria” value (from here on “range … X. vesicatoria”) is above 7.5 µM.

Regarding `CC[C@H](C)[C@H](NC(=O)[C@H](CCCCN)NC(=O)[C@H](CCCCN)NC(=O)[C@H](Cc1ccccc1)NC(=O)[C@H](CC(C)C)NC(=O)[C@H](CCCCN)NC(=O)[C@H](CCCCN)NC(=O)c1ccccc1)C(=O)N[C@@H](CC(C)C)C(=O)N[C@@H](CCCCN)C(=O)N[C@@H](CCCCN)C(=O)N[C@@H](CC(C)C)C(N)=O` [BP126], the “stability to degradation by proteases relative to the peptide of the Comparative example” value in data set [6] is “two times more stable”. Also, in data set [2], the “% Haemolysis 50 μM” value is recorded as 2%, the “% Haemolysis 150 μM” value came out at 14% and the “% Haemolysis 250 μM” value was found to be 24%. Also, the metabolised at 0.75 h, 50 μg/ml in data set [1] was 53%. Moreover, in data set [3], the “range … E. amylovora” value was 5 to 7.5 µM. Also, in data set [4], the “range … P. syringae” value is 2.5 to 5 µM. Besides, the “range … X. vesicatoria” value in data set [5] was 2.5 to 5 µM.

With WKLFKKILKFL-NH2 [BP019], in data set [2], the “% Haemolysis 50 μM” value was 57%, the “% Haemolysis 150 μM” value was found to be 94% and the “% Haemolysis 250 μM” value came to 100%. Moreover, the metabolised at 0.75 h, 50 μg/ml in data set [1] came to 87%. In data set [3], the “range … E. amylovora” value fell in the range of 5 to 7.5 µM. Further, the “range … P. syringae” value in data set [4] lay in the range of 5 to 7.5 µM. In data set [5], the “range … X. vesicatoria” value is 2.5 to 5 µM.

For the molecule `CC[C@H](C)[C@H](NC(=O)[C@H](CCCCN)NC(=O)[C@H](CCCCN)NC(=O)[C@H](Cc1ccccc1)NC(=O)[C@H](CC(C)C)NC(=O)[C@H](CCCCN)NC(=O)[C@@H](N)CCCCN)C(=O)N[C@@H](CC(C)C)C(=O)N[C@@H](CCCCN)C(=O)N[C@H](C(=O)N[C@@H](CC(C)C)C(N)=O)C(C)C` [BP015], in data set [2], the “% Haemolysis 50 μM” value is reported as 0%, the “% Haemolysis 150 μM” value stood at 16% and the “% Haemolysis 250 μM” value is given as 45%. This molecule gave a metabolised at 0.75 h, 50 μg/ml in data set [1] of 100%. Further, the “range … E. amylovora” value in data set [3] fell in the range of 5 to 7.5 µM. In addition, in data set [4], the “range … P. syringae” value fell in the range of 2.5 to 5 µM. The “range … X. vesicatoria” value in data set [5] was above 7.5 µM.

The molecule Ac-WKLFKKILKVL-NH2 [BP008] registered a metabolised at 0.75 h, 50 μg/ml in data set [1] of 100%.

For `CC[C@H](C)[C@H](NC(=O)[C@H](CCCCN)NC(=O)[C@H](CCCCN)NC(=O)[C@H](Cc1ccccc1)NC(=O)[C@H](CC(C)C)NC(=O)[C@H](CCCCN)NC(=O)[C@H](CCCCN)NS(=O)(=O)c1ccc(C)cc1)C(=O)N[C@@H](CC(C)C)C(=O)N[C@@H](CCCCN)C(=O)N[C@@H](CCCCN)C(=O)N[C@@H](CC(C)C)C(N)=O` [BP125], in data set [2], the “% Haemolysis 50 μM” value is 2%, the “% Haemolysis 150 μM” value was determined as 8% and the “% Haemolysis 250 μM” value worked out at 23%. Further, the metabolised at 0.75 h, 50 μg/ml in data set [1] is 67%. The “range … E. amylovora” value in data set [3] is above 7.5 µM. Moreover, the “range … P. syringae” value in data set [4] was 2.5 to 5 µM. In addition, the “range … X. vesicatoria” value in data set [5] is 2.5 to 5 µM.

As for `CC[C@H](C)[C@H](NC(=O)[C@H](CCCCN)NC(=O)[C@H](CCCCN)NC(=O)[C@H](Cc1ccccc1)NC(=O)[C@H](CC(C)C)NC(=O)[C@H](CCCCN)NC(=O)[C@@H](N)CCCCN)C(=O)N[C@@H](CC(C)C)C(=O)N[C@@H](CCCCN)C(=O)N[C@@H](Cc1ccc(O)cc1)C(=O)N[C@@H](CC(C)C)C(N)=O` [BP100], in data set [2], the “% Haemolysis 50 μM” value is 3%, the “% Haemolysis 150 μM” value turned out to be 22% and the “% Haemolysis 250 μM” value turned out to be 43%. This molecule came in with a metabolised at 0.75 h, 50 μg/ml in data set [1] of 60%. The “range … X. vesicatoria” value in data set [5] lay within 5 to 7.5 µM.

For `CC[C@H](C)[C@H](NC(=O)[C@H](CCCCN)NC(=O)[C@H](CCCCN)NC(=O)[C@H](Cc1ccccc1)NC(=O)[C@H](CC(C)C)NC(=O)[C@H](CCCCN)NC(=O)[C@H](CCCCN)NC(C)=O)C(=O)N[C@@H](CC(C)C)C(=O)N[C@@H](CCCCN)C(=O)N[C@@H](Cc1ccccc1)C(=O)N[C@@H](CC(C)C)C(N)=O` [BP077], in data set [2], the “% Haemolysis 50 μM” value came to 6%, the “% Haemolysis 150 μM” value turned out to be 40% and the “% Haemolysis 250 μM” value amounted to 81%. This molecule also showed a metabolised at 0.75 h, 50 μg/ml in data set [1] of 84%. Also, the “range … E. amylovora” value in data set [3] is 5 to 7.5 µM. Further, in data set [4], the “range … P. syringae” value was in the range of 5 to 7.5 µM. Further, the “range … X. vesicatoria” value in data set [5] is below 2.5 µM.

Regarding `CC[C@H](C)[C@H](NC(=O)[C@H](CCCCN)NC(=O)[C@H](CCCCN)NC(=O)[C@H](Cc1ccccc1)NC(=O)[C@H](CC(C)C)NC(=O)[C@H](CCCCN)NC(=O)[C@H](Cc1c[nH]c2ccccc12)NC(=O)c1ccccc1)C(=O)N[C@@H](CC(C)C)C(=O)N[C@@H](CCCCN)C(=O)N[C@H](C(=O)N[C@@H](CC(C)C)C(N)=O)C(C)C` [BP010] (Bz-WKLFKKILKVL-NH2), in data set [2], the “% Haemolysis 50 μM” value stood at 77%, the “% Haemolysis 150 μM” value amounted to 77% and the “% Haemolysis 250 μM” value came out at 76%. The metabolised at 0.75 h, 50 μg/ml in data set [1] amounted to 100%. Besides, the “range … E. amylovora” value in data set [3] was above 7.5 µM. In data set [4], the “range … P. syringae” value is above 7.5 µM. In addition, the “range … X. vesicatoria” value in data set [5] was below 2.5 µM.

“WKLFKKILKVL-NH2 [Comparative example, reference compound]” displayed a metabolised at 0.75 h, 50 μg/ml in data set [1] of 100%. In data set [3] (setting [7]), the “range … E. amylovora” value was “over 7.5 μM”. Besides, in data set [4] (setting [7]), the “range … P. syringae” value is on record as “over 7.5 μM”. In data set [5] (setting [7]), the “range … X. vesicatoria” value is “over 7.5 μM”.

Consider `CC[C@H](C)[C@H](NC(=O)[C@H](CCCCN)NC(=O)[C@H](CCCCN)NC(=O)[C@H](Cc1ccccc1)NC(=O)[C@H](CC(C)C)NC(=O)[C@H](CCCCN)NC(=O)[C@@H](N)Cc1c[nH]c2ccccc12)C(=O)N[C@@H](CC(C)C)C(=O)N[C@@H](CCCCN)C(=O)N[C@@H](Cc1ccc(O)cc1)C(=O)N[C@@H](CC(C)C)C(N)=O` [BP020], for which, in data set [2], the “% Haemolysis 50 μM” value was determined as 78%, the “% Haemolysis 150 μM” value was found to be 77% and the “% Haemolysis 250 μM” value was determined as 72%. Besides, the metabolised at 0.75 h, 50 μg/ml in data set [1] amounted to 85%. In data set [3], the “range … E. amylovora” value lay in the range of 2.5 to 5 µM. The “range … P. syringae” value in data set [4] lay in the range of 2.5 to 5 µM. The “range … X. vesicatoria” value in data set [5] was in the range of 2.5 to 5 µM.

As to `CC[C@H](C)[C@H](NC(=O)[C@H](CCCCN)NC(=O)[C@H](CCCCN)NC(=O)[C@H](Cc1ccccc1)NC(=O)[C@H](CC(C)C)NC(=O)[C@H](CCCCN)NC(=O)[C@@H](N)CCCCN)C(=O)N[C@@H](CC(C)C)C(=O)N[C@@H](CCCCN)C(=O)N[C@@H](Cc1ccccc1)C(=O)N[C@@H](CC(C)C)C(N)=O` [BP076], the “stability to degradation by proteases relative to the peptide of the Comparative example” value in data set [6] was “two times more stable”. For the same molecule, in data set [2], the “% Haemolysis 50 μM” value was found to be 3%, the “% Haemolysis 150 μM” value was 34% and the “% Haemolysis 250 μM” value is given as 65%. For the same molecule, the metabolised at 0.75 h, 50 μg/ml in data set [1] turned out to be 49%. Besides, the “range … E. amylovora” value in data set [3] was 2.5 to 5 µM. Also, the “range … P. syringae” value in data set [4] lay within 2.5 to 5 µM. In addition, the “range … X. vesicatoria” value in data set [5] lay in the range of 2.5 to 5 µM.

For the origin of these results see patent US8026219B2, “Antimicrobial linear peptides” (Universitat de Girona, priority 2006, dated 2011).
